Laboratory results reported in article PMC11868331, “A Phase 1b study of the OxPhos inhibitor ME-344 with bevacizumab in refractory metastatic colorectal cancer” (Investigational New Drugs, 2024).

What was measured:
[1] = test system: PyMT breast cancer and Lewis lung carcinoma models; parameters: method as in PMID 27292634; settings: in combination with TKIs; cited from earlier work
[2] = test system: panel of human cancer cells; settings: cells representative of most major organ systems; preclinical screening studies; cited from earlier work
[3] = ME-344 plasma pharmacokinetics, non-compartmental analysis; assay type: in vivo, human; settings: for Cmax, Mean (%CV): ME-344 10 mg/kg 60-minute infusion
Experimental: Serial blood samples for ME-344 pharmacokinetic analyses were collected 5 min after the end of ME-344 infusion and at 1, 2, 3, 6 and 24 h after the completion of infusion on days 1 and 15 of cycle 1, and ME-344 plasma concentrations were determined using validated analytical methods. ME-344 pharmacokinetic parameters were estimated using actual sampling times by non-compartmental analysis.

[4] = test system: early HER2-negative breast cancer; parameters: method as in PMID 31597662; settings: mitochondrial on-target effect; cited from earlier work
[5] = test system: patients with ovarian and small cell lung cancer; parameters: method as in PMID 28283779; settings: ME-344 at 10 mg/kg in combination with topotecan; cited from earlier work
solid tumors = test system: solid tumors; parameters: method as in PMID 25411085; settings: cited from earlier work

Cc1c(O)ccc2c1OC[C@@H](c1ccc(O)cc1)[C@H]2c1ccc(O)cc1 [ME-344]
tumor control [1]: synergistic tumor control
antiproliferative activity [2]: broad antiproliferative activity
AUCinf, Mean (%CV) ([3]; Cycle 1 Day 1 (n = 17)): 23.0 (34%) µg×h/mL
AUClast, Mean (%CV) ([3]; Cycle 1 Day 1 (n = 17)): 22.6 (34%) µg×h/mL
Tmax, median (range) ([3]; Cycle 1 Day 1 (n = 17)): 1.08 [1.03 – 1.33] hours
Cmax, Mean (%CV) ([3]; Cycle 1 Day 1 (n = 17)): 12.60 (42%) µg/mL
AUCinf, Mean (%CV) ([3]; Cycle 1 Day 15 (n = 15)): 23.7 (38%) ^A µg×h/mL
AUClast, Mean (%CV) ([3]; Cycle 1 Day 15 (n = 15)): 22.4 (35%) ^A µg×h/mL
Half-life (terminal phase t1/2), Mean (%CV) ([3]; Cycle 1 Day 15 (n = 15)): 5.1 (38%) ^A h
Tmax, median (range) ([3]; Cycle 1 Day 15 (n = 18)): 1.17 [1.03 – 2.23] hours
Cmax, Mean (%CV) ([3]; Cycle 1 Day 15 (n = 18)): 11.83 (47%) µg/mL
pre-dose plasma concentrations ([3]; day 15): negligible
succinate dehydrogenase and HIF1α staining [4]: decrease
tolerability [5]: well tolerated
dose limiting toxicity (solid tumors; at higher doses than 10 mg/kg): peripheral neuropathy
recommended phase 2 dose (solid tumors; intravenously (IV) once weekly for 3 weeks in a 28-day cycle): 10 mg/kg
